Assay results: patent publication US8846746B2, “Pyrazole compound and pharmaceutical use thereof” (Japan Tobacco Inc., priority 2011, dated 2014)

target: human SGLT1 (Homo sapiens (Human), UniProt P13866); test: SGLT1 inhibitory activity: 14C-AMG uptake into CHO-K1 cell line stably expressing human SGLT1; format: cell-based; settings: 14C-AMG uptake, CHO-K1 cells stably expressing human SGLT1
Method in brief: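 Human SGLT1 was stably expressed in CHO-K1 cells. Cells were first held 20 min in sodium-free buffer, then exposed to compound in Na(+)/BSA buffer with tracer and AMG (2 mM in the added solution).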

Chain of human SGLT1 (P13866 whole entry): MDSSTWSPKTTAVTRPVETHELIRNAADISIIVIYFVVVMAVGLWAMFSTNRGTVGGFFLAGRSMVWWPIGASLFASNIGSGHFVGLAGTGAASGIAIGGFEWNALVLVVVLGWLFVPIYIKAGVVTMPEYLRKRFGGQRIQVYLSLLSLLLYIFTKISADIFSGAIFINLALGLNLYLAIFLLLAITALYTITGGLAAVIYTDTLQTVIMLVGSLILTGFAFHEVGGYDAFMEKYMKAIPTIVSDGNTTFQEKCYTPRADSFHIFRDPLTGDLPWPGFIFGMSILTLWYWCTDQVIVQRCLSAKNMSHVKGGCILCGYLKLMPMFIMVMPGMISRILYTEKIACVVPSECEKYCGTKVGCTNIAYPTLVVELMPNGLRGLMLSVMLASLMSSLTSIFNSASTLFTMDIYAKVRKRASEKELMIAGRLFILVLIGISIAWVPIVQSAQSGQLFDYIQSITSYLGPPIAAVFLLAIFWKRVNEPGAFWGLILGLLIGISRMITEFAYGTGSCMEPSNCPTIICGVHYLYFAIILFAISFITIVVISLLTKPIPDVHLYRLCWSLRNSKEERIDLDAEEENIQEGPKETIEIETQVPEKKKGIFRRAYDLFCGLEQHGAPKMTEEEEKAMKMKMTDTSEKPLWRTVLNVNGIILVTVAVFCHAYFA

| Structure (SMILES) | IC50 [nM] |
| --- | --- |
| C[C@@H](OCc1cc(Cl)cc(-c2cc(NC(=O)[C@@H]3CNC(=O)C3)nn2-c2ccc(F)cc2)c1)C(F)(F)F [Example 242, (S)-5-oxopyrrolidine-3-carboxylic acid{5-[3-chloro-5-((R)-2,2,2-trifluoro-1-methylethoxymethyl)phenyl]-1-(4-fluorophenyl)-1H-pyrazol-3-yl}amide] | 9 |
| C[C@@H](OCc1cccc(-c2cc(NC(=O)[C@@H]3CNC(=O)C3)nn2-c2ccc(Cl)cc2)c1)C(F)(F)F [Example 244, (S)-5-oxopyrrolidine-3-carboxylic acid{1-(4-chlorophenyl)-5-[3-((R)-2,2,2-trifluoro-1-methylethoxymethyl)phenyl]-1H-pyrazol-3-yl}amide] | 8 |
| CCCCc1cccc(-c2cc(NC(=O)[C@H]3CNC(=O)N3)nn2-c2ccccc2)c1 [Example 245, (R)-2-Oxoimidazolidine-4-carboxylic acid[5-(3-butylphenyl)-1-phenyl-1H-pyrazol-3-yl]amide] | 19 |
| O=C1C[C@H](C(=O)Nc2cc(-c3cccc(COC(C(F)(F)F)C(F)(F)F)c3)n(-c3ccccc3)n2)CN1 [Example 246, (S)-5-oxopyrrolidine-3-carboxylic acid{1-phenyl-5-[3-(2,2,2-trifluoro-1-trifluoromethylethoxymethyl)phenyl]-1H-pyrazol-3-yl}amide] | 11.5 |
| O=C1C[C@H](C(=O)Nc2cc(-c3cc(F)cc(COCC(F)(F)F)c3)n(-c3ccc(F)cc3)n2)CN1 [Example 248, (S)-5-oxopyrrolidine-3-carboxylic acid{1-(4-fluorophenyl)-5-[3-fluoro-5-(2,2,2-trifluoroethoxymethyl)phenyl]-1H-pyrazol-3-yl}amide] | 25 |
| CCCc1cccc(-c2cc(NC(=O)C34CNC(=O)C3C4)nn2-c2ccccc2)c1 (centres unmarked) [Example 249, 4-oxo-3-azabicyclo[3.1.0]hexane-1-carboxylic acid[1-phenyl-5-(3-propylphenyl)-1H-pyrazol-3-yl]amide] | 39 |
| CCCc1cccc(-c2cc(NC(=O)[C@@H]3CNC(=O)O3)nn2-c2ccccc2)c1 [Example 257] | 76 |
| CCCc1cccc(-c2cc(NC(=O)[C@H]3CNC(=O)O3)nn2-c2ccccc2)c1 [Example 258] | 23 |
| O=C1C[C@H](C(=O)Nc2cc(-c3cccc(OCC(F)(F)F)c3)n(-c3ccccc3)n2)CN1 [Example 260] | 23 |
| CCCc1cccc(-c2cc(NC(=O)[C@@H]3CNC(=O)C3)nn2-c2cccc(Cl)c2)c1 [Example 262] | 6 |
| O=C1NC[C@@H](C(=O)Nc2cc(-c3cccc(OC(F)(F)F)c3)n(-c3ccccc3)n2)O1 [Example 263] | 370 |
| COC(C)(C)c1cccc(-c2cc(NC(=O)[C@H]3CNC(=O)N3)nn2-c2ccccc2)c1 [Example 269] | 92 |
| COC(C)(C)c1cccc(-c2cc(NC(=O)C3CNC(=O)NC3)nn2-c2ccccc2)c1 [Example 271] | 290 |
| O=C1C[C@H](C(=O)Nc2cc(-c3cccc(OCCCC(F)(F)F)c3)n(-c3ccccc3)n2)CN1 [Example 273] | 27 |
| O=C1C[C@@H](C(=O)Nc2cc(-c3cccc(COCC(F)(F)F)c3)n(-c3ccccc3)n2)CN1 [Example 280] | 9.8 |
| O=C1C[C@H](C(=O)Nc2cc(-c3cccc(COCCC(F)(F)F)c3)n(-c3ccccc3)n2)CN1 [Example 281] | 21.5 |
| O=C1C[C@@H](C(=O)Nc2cc(-c3cccc(COCCC(F)(F)F)c3)n(-c3ccccc3)n2)CN1 [Example 282] | 9.9 |
| CCOCc1cccc(-c2cc(NC(=O)[C@@H]3CNC(=O)C3)nn2-c2ccccc2)c1 [Example 283] | 110 |
| CC(C)COc1cccc(-c2cc(NC(=O)[C@@H]3CNC(=O)C3)nn2-c2ccccc2)c1 [Example 286] | 30 |
| CC(C)(C)Oc1cccc(-c2cc(NC(=O)[C@@H]3CNC(=O)C3)nn2-c2ccccc2)c1 [Example 290] | 5.5 |
| CCC(C)(C)Oc1cccc(-c2cc(NC(=O)[C@@H]3CNC(=O)C3)nn2-c2ccccc2)c1 [Example 291] | 5.1 |
| CCCc1cccc(-c2cc(NC(=O)[C@@H]3CNC(=O)N3CC)nn2-c2ccccc2)c1 [Example 295] | 29 |
| CCCc1cccc(-c2cc(NC(=O)[C@@H]3CNC(=O)N3CCC)nn2-c2ccccc2)c1 [Example 297] | 71 |
| CC(C)OCc1cccc(-c2cc(NC(=O)[C@@H]3CNC(=O)C3)nn2-c2ccccc2)c1 [Example 299] | 33 |
| CCCOCc1cccc(-c2cc(NC(=O)[C@@H]3CNC(=O)C3)nn2-c2ccccc2)c1 [Example 300] | 38 |
| CC(C)Oc1cccc(-c2cc(NC(=O)[C@@H]3CNC(=O)C3)nn2-c2ccccc2)c1 [Example 301] | 63 |
| CCCc1cccc(-c2cc(NC(=O)C3CCS(=O)(=O)CC3)nn2-c2ccccc2)c1 [Example 302] | 1.5 |
| O=C1NC[C@H](C(=O)Nc2cc(-c3cccc(COCC(F)(F)F)c3)n(-c3ccccc3)n2)O1 [Example 305] | 29 |
| CCCCc1cccc(-c2cc(NC(=O)[C@H]3CNC(=O)O3)nn2-c2ccccc2)c1 [Example 306] | 13 |
| CC(C)OCc1cccc(-c2cc(NC(=O)[C@H]3CNC(=O)C3)nn2-c2ccccc2)c1 [Example 311] | 17.5 |

The remaining lines, values ahead:

| IC50 [nM] | Structure (SMILES) |
| --- | --- |
| 9.95 | C[C@@H](OCc1cc(Cl)cc(-c2cc(NC(=O)[C@@H]3CNC(=O)C3)nn2-c2ccccc2)c1)C(F)(F)F [Example 241, (S)-5-oxopyrrolidine-3-carboxylic acid{5-[3-chloro-5-((R)-2,2,2-trifluoro-1-methylethoxymethyl)phenyl]-1-phenyl-1H-pyrazol-3-yl}amide] |
| 14 | CC(C)(OCc1cc(Cl)cc(-c2cc(NC(=O)[C@@H]3CNC(=O)C3)nn2-c2ccccc2)c1)C(F)(F)F [Example 243, (S)-5-oxopyrrolidine-3-carboxylic acid[5-[3-chloro-5-(2,2,2-trifluoro-1,1-dimethylethoxymethyl)phenyl]-1-phenyl-1H-pyrazol-3-yl]amide] |
| 3.77 | CCCc1cccc(-c2cc(NC(=O)[C@@H]3CNC(=O)C3)nn2-c2ccccc2C)c1 [Example 261] |
| 39 | O=C1NC[C@H](C(=O)Nc2cc(-c3cccc(OC(F)(F)F)c3)n(-c3ccccc3)n2)O1 [Example 264] |
| 45 | O=C1NC[C@@H](C(=O)Nc2cc(-c3cccc(OC(F)(F)F)c3)n(-c3ccccc3)n2)N1 [Example 266] |
| 81 | O=C1NC[C@H](C(=O)Nc2cc(-c3cccc(OC(F)(F)F)c3)n(-c3ccccc3)n2)N1 [Example 267] |
| 8.5 | CCCCc1cccc(-c2cc(NC(=O)[C@@H]3CNC(=O)N3)nn2-c2ccccc2)c1 [Example 268] |
| 45 | COC(C)(C)c1cccc(-c2cc(NC(=O)[C@@H]3CNC(=O)N3)nn2-c2ccccc2)c1 [Example 270] |
| 37 | O=C1C[C@H](C(=O)Nc2cc(-c3cccc(OCCC(F)(F)F)c3)n(-c3ccccc3)n2)CN1 [Example 272] |
| 17.5 | O=C1C[C@H](C(=O)Nc2cc(-c3cccc(COCC(F)(F)F)c3)n(-c3ccccc3)n2)CN1 [Example 279] |
| 75 | CCCOc1cccc(-c2cc(NC(=O)[C@@H]3CNC(=O)C3)nn2-c2ccccc2)c1 [Example 284] |
| 21 | CCOCc1cccc(-c2cc(NC(=O)[C@H]3CNC(=O)C3)nn2-c2ccccc2)c1 [Example 285] |
| 12 | CC(C)COc1cccc(-c2cc(NC(=O)[C@H]3CNC(=O)C3)nn2-c2ccccc2)c1 [Example 287] |
| 11.5 | CC(C)(C)COc1cccc(-c2cc(NC(=O)[C@@H]3CNC(=O)C3)nn2-c2ccccc2)c1 [Example 288] |
| 4.5 | CC(C)(C)COc1cccc(-c2cc(NC(=O)[C@H]3CNC(=O)C3)nn2-c2ccccc2)c1 [Example 289] |
| 24.5 | CC(C)(C)CCOc1cccc(-c2cc(NC(=O)[C@@H]3CNC(=O)C3)nn2-c2ccccc2)c1 [Example 294] |
| 4.7 | CCCc1cccc(-c2cc(NC(=O)[C@H]3CNC(=O)N3CC)nn2-c2ccccc2)c1 [Example 303] |
| 10 | CCCc1cccc(-c2cc(NC(=O)[C@H]3CNC(=O)N3CCC)nn2-c2ccccc2)c1 [Example 304] |
| 22 | CCCOCc1cccc(-c2cc(NC(=O)[C@H]3CNC(=O)C3)nn2-c2ccccc2)c1 [Example 312] |
| 19.5 | CC(C)(C)OCc1cccc(-c2cc(NC(=O)[C@@H]3CNC(=O)C3)nn2-c2ccccc2)c1 [Example 313] |

same assay, conditions: CHO-K1, at 0.03 uM

| inhibition at 0.03 µM [%] | Structure (SMILES) |
| --- | --- |
| 7 | O=C1NCC(C(=O)Nc2cc(-c3cccc(OC(F)(F)F)c3)n(-c3ccccc3)n2)CN1 [Example 252] |

same assay, conditions: CHO-K1, at 0.1 uM

| Structure (SMILES) | inhibition at 0.1 µM [%] |
| --- | --- |
| CCCc1cccc(-c2cc(NC(=O)C3CNC(=O)NC3)nn2-c2ccccc2)c1 [Example 251] | 41 |
| O=C1COC(C(=O)Nc2cc(-c3cccc(OC(F)(F)F)c3)n(-c3ccccc3)n2)CN1 (centres unmarked) [Example 276] | 30 |
| CCC1C(=O)NCC1C(=O)Nc1cc(-c2cccc(OC(F)(F)F)c2)n(-c2ccccc2)n1 (centres unmarked) [Example 310] | 42 |

Second part, the compound after the results:

| inhibition at 0.1 µM [%] | Structure (SMILES) |
| --- | --- |
| 17 | COCc1cccc(-c2cc(NC(=O)[C@@H]3CNC(=O)C3)nn2-c2ccccc2)c1 [Example 265] |
| 48 | CCCc1cccc(-c2cc(NC(=O)C3CNC(=O)CO3)nn2-c2ccccc2)c1 (centres unmarked) [Example 275] |
| 48 | CCN1C(=O)NC[C@H]1C(=O)Nc1cc(-c2cccc(OC(F)(F)F)c2)n(-c2ccccc2)n1 [Example 296] |
| 38 | CCCN1C(=O)NC[C@H]1C(=O)Nc1cc(-c2cccc(OC(F)(F)F)c2)n(-c2ccccc2)n1 [Example 298] |

same assay, conditions: at 0.1 uM

| human SGLT1 % Inhibition [%] | Structure (SMILES) |
| --- | --- |
| 48 | CCCc1cccc(-c2cc(NC(=O)C3CNC(=O)CO3)nn2-c2ccccc2)c1 (centres unmarked) [Example 277] |
| 34 | O=C1COC(C(=O)Nc2cc(-c3cccc(OC(F)(F)F)c3)n(-c3ccccc3)n2)CN1 (centres unmarked) [Example 278] |

same assay, conditions: at 0.3 uM

| human SGLT1 % Inhibition [%] | Structure (SMILES) |
| --- | --- |
| 7 | CCCc1cccc(-c2cc(NC(=O)C3CCCC(=O)NC3)nn2-c2ccccc2)c1 (centres unmarked) [Example 255] |
| 3 | CCCc1cccc(-c2cc(NC(=O)C3CCCC(=O)NC3)nn2-c2ccccc2)c1 (centres unmarked) [Example 256] |
